# From article PMC10966741, “Consensus Pharmacophore Strategy For Identifying Novel SARS-Cov-2 M^pro Inhibitors from Large Chemical Libraries” (Journal of Chemical Information and Modeling, 2024)
# Target: SARS-CoV-2 M^pro (main protease; 3CLpro) (Severe acute respiratory syndrome coronavirus 2, UniProt P0DTC1)
# Assay: continuous FRET cleavage assay
# Type: biochemical
row,Structure (SMILES),IC50
1,"CCOc1cc(C)ccc1NC(=O)C1CC(=O)Nc2ccccc21 (stereo not drawn) [compound 4, N-(2-ethoxy-4-methylphenyl)-2-oxo-1,2,3,4-tetrahydroquinoline-4-carboxamide]",32.6 µM
2,"O=C(Nc1ccccc1-c1nc2ccccc2[nH]1)c1cc(C2CC2)[nH]n1 [compound 5, N-[2-(1H-1,3-benzodiazol-2-yl)phenyl]-5-cyclopropyl-1H-pyrazole-3-carboxamide]",70.5 µM
3,"Cc1ccc(NC(=O)C2CC(=O)Nc3cc(F)ccc32)c(OCC(F)(F)F)c1 (stereo not drawn) [compound 1, 7-fluoro-N-[4-methyl-2-(2,2,2-trifluoroethoxy)phenyl]-2-oxo-1,2,3,4-tetrahydroquinoline-4-carboxamide]",86.6 µM
